How the values were obtained:
[1] = Chemical Abstracts 63, 18050-18051 (Belgian Pat. No. 644,679); cited from earlier work
[2] = Chemical Abstracts 63, 18050-18051 (Belgian Pat. No. 644,679); cited from earlier work; remark: listed apart in the source
[3] = test system: Straub Tail induced by oxymorphone; test: Oxymorphone Straub Tail antagonism (antagonist activity); format: in vivo, mouse; conditions: for ED50: sc, mouse, subcutaneous, hydrochloride salts of IX and X, oxymorphone 2 mg./kg. s.c.
Experimental: ^2 Antagonism of Straub Tail induced by oxymorphone (2 mg./kg. s.c.)

[4] = test system: analgesic effect induced by morphine; test: Morphine antagonist rat tail flick (antagonist activity); conditions: for ED50: Rattus norvegicus, sc, read-out: ED50 Antagonist Activity, Morphine Antagonist Rat Tail Flick
[5] = test system: phenylquinone induced writhing; test: Mouse phenylquinone writhing (analgesic activity); format: in vivo; conditions: for ED50: sc, mouse, subcutaneous, hydrochloride salts of IX and X, 50 percent reduction in number of writhings; for analgesic potency relative to pentazocine: in words, compared with pentazocine
Text: ^1 A 50 percent reduction in number of phenylquinone induced writhing
[Siegmumd, E.A., et al., Proc. Soc. Biol. & Med 95, p. 729 (1957)].

[6] = monkey; J. Med. Chem. 12, 845-847 (1969); cited from earlier work
[7] = J. Med. Chem. 12, 845-847 (1969); cited from earlier work
[8] = Behavioral studies in the dog; format: in vivo; conditions: subcutaneous dose of 2 mg./kg.
Experimental: The normal parenteral dosage of the compounds of this invention in adult humans is about 0.25 to 16 mg. three to four times a day.

SMILES | antagonism to meperidine (in words) [1] | analgesic activity (in words) [2] | ED50 [3] | ED50 [4] | ED50 [5] | analgesic potency relative to pentazocine [5] | side effects in behavioral studies [8] | further results
Oc1ccc2c(c1)[C@@]13CCCC[C@H]1[C@@H](C2)N(CC1CCC1)CC3 (stereo in doubt) [N-cyclobutylmethyl-3-hydroxymorphinan] | antagonists to meperidine | analgesics | – | – | – | – | – | –
CC(C)=CCN1CCC2(C)c3cc(O)ccc3CC1C2C (centres unmarked) [Pentazocine, reference compound] | – | – | 12 mg/kg | 12.2 mg/kg | 3.7 mg/kg | – | – | –
Oc1ccc2c(c1)[C@@]13CCCC[C@H]1[C@@H](C2)N(CC1CC1)CC3 [N-cyclopropylmethyl-3-hydroxymorphinan] | antagonists to meperidine | analgesics | – | – | – | – | – | –
NC(=O)N1CCC2CC1Cc1ccc(O)cc12 (centres unmarked) [3-carboxamido-1,2,3,4,5,6-hexahydro-2,6-methano-3-benzazocin-8-ol] | – | – | – | – | – | – | – | physical dependence capacity (in words) [6]: unusual freedom from physical dependence capacity in the monkey; analgetic effect, oral (in words) [7]: orally effective analgetic
Oc1ccc2c(c1)[C@]13CCN(CC4CC4)[C@H](C2)[C@@H]1CCc1ccccc13 (relative stereo) [IX, 3-Hydroxy-17-cyclopropylmethyl-5,6-benzomorphinan] | – | – | ~40 mg/kg | 2.3 mg/kg | ~4.5 mg/kg | about the same analgesic potency as pentazocine | free of side effects | antagonist activity (in words) ([3]; test not given): little antagonist activity
Oc1ccc2c(c1)[C@]13CCN(CC4CCC4)[C@H](C2)[C@@H]1CCc1ccccc13 (relative stereo) [X, 3-Hydroxy-17-cyclobutylmethyl-5,6-benzomorphinan] | – | – | > 40 mg/kg | – | ~4.5 mg/kg | about the same analgesic potency as pentazocine | free of side effects | times more active as an antagonist in the rat than pentazocine ([4]; rat, relative to pentazocine): approximately 5 times
